Experimental data published in patent US10124004B2, “Pyrido[3,4-d]pyrimidine derivative and pharmaceutically acceptable salt thereof” (Teijin Pharma Limited, priority 2015, dated 2018).

Columns and labels:
CDK4/cyclin D3 = target: T1, CDK4/cyclin D3 (Homo sapiens, UniProt P11802); assay: Human CDK4/cyclin D3 inhibitory activity (QS S Assist CDK4/Cyclin D3_FP Kit, IMAP fluorescence polarization); type: biochemical; details: 50% inhibitory concentration against CDK4/cyclin D3, given as class symbol
T1 construct: purchased Carna Biosciences, Inc. QS S Assist CDK4/Cyclin D3_FP Kit
T1 sequence (P11802 whole entry): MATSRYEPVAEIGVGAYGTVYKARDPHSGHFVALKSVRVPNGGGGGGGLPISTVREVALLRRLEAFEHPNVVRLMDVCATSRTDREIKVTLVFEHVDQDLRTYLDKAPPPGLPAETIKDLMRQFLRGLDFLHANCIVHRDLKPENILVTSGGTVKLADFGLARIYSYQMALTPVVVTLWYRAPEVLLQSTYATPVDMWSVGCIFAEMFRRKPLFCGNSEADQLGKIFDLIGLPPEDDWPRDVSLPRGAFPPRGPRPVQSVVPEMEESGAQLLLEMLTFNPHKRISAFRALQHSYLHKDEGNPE
T1 sequence (P30281 whole entry partner): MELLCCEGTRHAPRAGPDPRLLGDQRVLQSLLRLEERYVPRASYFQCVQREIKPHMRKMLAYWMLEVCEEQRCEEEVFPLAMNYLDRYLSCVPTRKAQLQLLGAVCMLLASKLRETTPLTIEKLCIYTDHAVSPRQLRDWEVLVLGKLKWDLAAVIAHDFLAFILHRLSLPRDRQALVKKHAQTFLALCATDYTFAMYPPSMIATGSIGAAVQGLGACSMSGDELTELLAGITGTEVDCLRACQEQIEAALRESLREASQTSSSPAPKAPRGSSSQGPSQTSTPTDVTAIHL
Outline: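 Percent inhibition, relative to DMSO with and without enzyme, was curve-fitted to give IC50 from polarization (ex 485, em 535 nm). The 45-min room-temperature reaction used 12.5-25 ng/well enzyme, kit ATP/substrate/metal mix, and HEPES pH 7.4 buffer with Tween20 and DTT, followed by 30-min IMAP binding in the dark.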

CDK2/cyclin A2 = target: T2, CDK2/cyclin A2 (Homo sapiens, UniProt P24941); assay: Human CDK2/cyclin A2 inhibitory activity (QS S Assist CDK2/Cyclin A2_FP Kit, IMAP fluorescence polarization); type: biochemical; details: 50% inhibitory concentration against CDK2/cyclin A2, given as class symbol
T2 construct: purchased Carna Biosciences, Inc. QS S Assist CDK2/Cyclin A2_FP Kit
Outline: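 Kinase activity read as fluorescence polarization (485/535 nm) after phosphorylated fluorescent substrate binds IMAP reagent (30 min, RT, dark). Enzyme (2.5 ng/well) reacted 60 min at RT with ATP/substrate/metal in HEPES pH 7.4 buffer with Tween 20 and DTT; no-enzyme wells define 0% activity; IC50 by curve fit.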

| Compound | IC50 (CDK4/cyclin D3) [nM] | IC50 (CDK2/cyclin A2) [nM] |
| --- | --- | --- |
| CC(C)Nc1nc([C@@H](C)O)cc2cnc(Nc3ccc4c(n3)CCN(C(=O)CO)C4)nc12 [Compound 651] | < 10 | ≥ 100 |
| C[C@@H](O)c1cc2cnc(Nc3ccc4c(n3)CCN(C(=O)CO)C4)nc2c(N[C@H]2CC[C@H](C)CC2)n1 [Compound 652] | < 10 | ≥ 100 |
| C[C@@H](O)c1cc2cnc(Nc3ccc4c(n3)CCN(C(=O)CO)C4)nc2c(N[C@H]2CC[C@@H](C)CC2)n1 [Compound 653] | < 10 | ≥ 100 |
| C[C@@H](O)c1cc2cnc(Nc3ccc4c(n3)CCN(C(=O)CO)C4)nc2c(NC2CCC(C)(C)CC2)n1 [Compound 654] | < 10 | ≥ 100 |
| CC(C)Nc1nc([C@@H](C)O)cc2cnc(Nc3cc4c(cn3)CN(C(=O)CO)CC4)nc12 [Compound 655] | 10 to 100 | ≥ 100 |
| CC(C)Nc1nc([C@@H](C)O)cc2cnc(Nc3ccc4c(n3)CN(C(=O)CO)C4)nc12 [Compound 656] | < 10 | ≥ 100 |
| CC(C)Nc1nc([C@@H](C)O)cc2cnc(Nc3ccc(N4CCN(C(C)(C)C(=O)O)CC4)nn3)nc12 [Compound 657] | < 10 | ≥ 100 |
| C[C@@H](O)c1cc2cnc(Nc3ccc(N4CCNCC4=O)cn3)nc2c(NC2CCC(C)(C)CC2)n1 [Compound 658] | < 10 | ≥ 100 |
| CC(C)Nc1nc([C@@H](C)O)cc2cnc(Nc3ccc(N4CCN(C(=O)CO)CC4)nn3)nc12 [Compound 659] | < 10 | ≥ 100 |
| CC(C)Nc1nc([C@@H](C)O)cc2cnc(Nc3ccc(N4CCC(CO)CC4)nn3)nc12 [Compound 660] | < 10 | ≥ 100 |
| CC(C)Nc1nc([C@@H](C)O)cc2cnc(Nc3ccc(N4CC[C@@H](O)C4)nn3)nc12 [Compound 661] | < 10 | ≥ 100 |
| CC(C)Nc1nc([C@@H](C)O)cc2cnc(Nc3ccc(N4CC[C@H](O)C4)nn3)nc12 [Compound 662] | < 10 | ≥ 100 |
| CC(C)Nc1nc([C@@H](C)O)cc2cnc(Nc3ccc(N4CCC(CO)C4)nn3)nc12 (some centres unmarked) [Compound 663] | < 10 | ≥ 100 |
| CC(C)Nc1nc([C@@H](C)O)cc2cnc(Nc3ccc(N4CCC(O)C(C)(C)C4)nn3)nc12 (some centres unmarked) [Compound 664] | < 10 | ≥ 100 |
| CC(C)Nc1nc([C@@H](C)O)cc2cnc(Nc3ccc(N4CCNCC(C)C4=O)cn3)nc12 (some centres unmarked) [Compound 665] | < 10 | ≥ 100 |
| CC(C)Nc1nc([C@@H](C)O)cc2cnc(Nc3ccc(N4CC(O)C4)nn3)nc12 [Compound 666] | < 10 | ≥ 100 |
| CC(C)Nc1nc([C@@H](C)O)cc2cnc(Nc3ccc(N4CC(CO)C4)nn3)nc12 [Compound 667] | < 10 | ≥ 100 |
| CC(C)Nc1nc([C@@H](C)O)cc2cnc(Nc3ccc(N4CC(C)(CO)C4)nn3)nc12 [Compound 668] | < 10 | ≥ 100 |
| CC(C)Nc1nc([C@@H](C)O)cc2cnc(Nc3ccc(CC(=O)N4CCNC5(CC5)C4)cn3)nc12 [Compound 669] | 10 to 100 | ≥ 100 |
| CC(C)Nc1nc(C2CCCO2)cc2cnc(Nc3ccc(N4CCNCC4=O)cn3)nc12 (centres unmarked) [Compound 670] | ≥ 100 | ≥ 100 |
| CC(C)Nc1nc(C(C)O)cc2cnc(Nc3ccc(OC4CNCC4F)cn3)nc12 (centres unmarked) [Compound 673] | < 10 | ≥ 100 |
| CC(C)Nc1nc([C@@H](C)O)cc2cnc(Nc3ccc(CN4CCN(C[C@H](C)O)CC4)cn3)nc12 [Compound 674] | < 10 | ≥ 100 |
| CC(C)Nc1nc([C@@H](C)O)cc2cnc(Nc3ccc(CN4CCN(C[C@@H](C)O)CC4)cn3)nc12 [Compound 675] | < 10 | ≥ 100 |

Now from value to molecule:

| IC50 (CDK4/cyclin D3) [nM] | IC50 (CDK2/cyclin A2) [nM] | Compound |
| --- | --- | --- |
| < 10 | 10 to 100 | CC(C)Nc1nc([C@@H](C)O)cc2cnc(Nc3ccc(N4CCN(C(C)C)CCC4=O)cn3)nc12 [Compound 631] |
| < 10 | ≥ 100 | CC(C)CN1CCC(=O)N(c2ccc(Nc3ncc4cc([C@@H](C)O)nc(NC(C)C)c4n3)nc2)CC1 [Compound 632] |
| < 10 | ≥ 100 | CC(C)Nc1nc([C@@H](C)O)cc2cnc(Nc3ccc(CN4CCN(C(C)C)CC4)cn3)nc12 [Compound 633] |
| < 10 | ≥ 100 | CNCCOc1ccc(Nc2ncc3cc([C@@H](C)O)nc(NC4CCC(C)(C)OC4)c3n2)nc1 (some centres unmarked) [Compound 634] |
| < 10 | ≥ 100 | CNCCOc1ccc(Nc2ncc3cc([C@@H](C)O)nc(N[C@H]4CCCOC4)c3n2)nc1 [Compound 635] |
| < 10 | ≥ 100 | CC(O)CN1CCN(c2ccc(Nc3ncc4cc([C@@H](C)O)nc(NC(C)C)c4n3)nc2)C(=O)C1 (some centres unmarked) [Compound 636] |
| < 10 | ≥ 100 | CC(O)CN1CCN(c2ccc(Nc3ncc4cc([C@@H](C)O)nc(NC(C)C)c4n3)nn2)CC1 (some centres unmarked) [Compound 637] |
| < 10 | ≥ 100 | CC(O)CN1CCN(Cc2ccc(Nc3ncc4cc([C@@H](C)O)nc(NC(C)C)c4n3)nc2)CC1 (some centres unmarked) [Compound 638] |
| < 10 | ≥ 100 | C[C@@H](O)c1cc2cnc(Nc3ccc(N4CCN(C)CC4)nn3)nc2c(NC2CCC(C)(C)OC2)n1 (some centres unmarked) [Compound 639] |
| < 10 | ≥ 100 | C[C@@H](O)c1cc2cnc(Nc3ccc(N4CCN(C)CC4)nn3)nc2c(N[C@H]2CCCOC2)n1 [Compound 640] |
| < 10 | ≥ 100 | COC1CCC(Nc2nc([C@@H](C)O)cc3cnc(Nc4ccc(N5CCN(C)CC5)nn4)nc23)CC1 (some centres unmarked) [Compound 641] |
| < 10 | ≥ 100 | CC(C)Nc1nc([C@@H](C)O)cc2cnc(Nc3ccc(N4CCN5CCCC5C4=O)cn3)nc12 (some centres unmarked) [Compound 642] |
| < 10 | ≥ 100 | CC(C)Nc1nc([C@@H](C)O)cc2cnc(Nc3ccc(N4CCN(CC(C)(C)O)CCC4=O)cn3)nc12 [Compound 643] |
| < 10 | ≥ 100 | CC(C)Nc1nc([C@@H](C)O)cc2cnc(Nc3ccc(CN4CCN(C(C)CO)CC4)cn3)nc12 (some centres unmarked) [Compound 644] |
| < 10 | ≥ 100 | CC(O)c1cc2cnc(Nc3ccc(OC4CCNCC4F)cn3)nc2c(NC2CCCOC2)n1 (centres unmarked) [Compound 645] |
| < 10 | ≥ 100 | COC1CCC(Nc2nc(C(C)O)cc3cnc(Nc4ccc(OC5CCNCC5F)cn4)nc23)CC1 (centres unmarked) [Compound 646] |
| < 10 | ≥ 100 | CC(O)c1cc2cnc(Nc3ccc(OC4CCNCC4F)cn3)nc2c(NC2CCC(C)(C)OC2)n1 (centres unmarked) [Compound 647] |
| < 10 | ≥ 100 | CC(C)Nc1nc([C@@H](C)O)cc2cnc(Nc3ccc(N4CCC5(CC4)CNC(=O)C5)nn3)nc12 [Compound 648] |
| < 10 | ≥ 100 | C[C@@H](O)c1cc2cnc(Nc3ccc(N4CCNCC4=O)cn3)nc2c(NC2CCC(C)(C)OC2)n1 (some centres unmarked) [Compound 649] |
| < 10 | ≥ 100 | COC1CCC(Nc2nc([C@@H](C)O)cc3cnc(Nc4ccc(N5CCNCC5=O)cn4)nc23)CC1 (some centres unmarked) [Compound 650] |
